From publication PMC3184957, “Improving a Natural CaMKII Inhibitor by Random and Rational Design” (PLoS ONE, 2011)
pIC50: −log10 of the molar value. Entries after “also recorded” stand apart in the source; their conditions may differ. Read-outs that look alike come from different tables or passages of the source. Ends that are not written are not given here.

What was measured:
[1] = target: T1, CaMKIIα (Rattus norvegicus, UniProt P11275); assay: CaMKII activity assay, phosphorylation of syntide 2; assay type: biochemical; conditions: for IC50: class estimated from syntide 2 phosphorylation at 0.3 and 0.1 µM peptide, Ala scan peptides not N-acetylated / C-amidated, read-out: IC50 [μM] (Ala scan of CN19, Fig. 2); for CaMKII activity remaining at 5 nM peptide: 5 nM peptide (Figs. S6, 7B); for effect of rational mutation in CN19a2v / CN19o on CaMKII inhibition (Fig. 6): compared with CN19a2v or CN19o, Fig. 6C CaMKII 0.5 nM; for fold greater potency of CaMKII inhibition compared to CN19: ratio of IC50 values; for effect of individual mutation of CN19 on potency of CaMKII inhibition: compared with CN19, some substitutions tested in CN19a2 or a3; for fold reduction of potency of CaMKII inhibition compared to CN19 (Ala scan): Ala substitution in CN19, Fig. 2
T1 construct: made in house; host or cells: baculovirus/Sf9 (CaMKII); bacteria (CaM)
Description: CaM and CaMKII was purified after bacterial or baculovirus/Sf9 cell expression as described, [47]. Other kinases were purchased (PKA and PKC from PhosphoSolutions; others from SignalChem). […] All CN peptides were N-terminally acetylated and C-terminally amidated, except for the peptides used for the initial Ala scan. Substrate peptides were purchase from Genescript or as indicated. Chemicals were obtained from Sigma and Perkin Elmer. […] For all kinase activity assays, reactions were stopped by spotting onto P81 cation exchange chromatography paper (Whatman) squares. After extensive washes in water, phosphorylation of the substrate peptide bound to the P81 paper was measured by the Cherenkov method.

[2] = target: T2, CaMKIα (Mus musculus, UniProt Q91YS8); assay: CaMKI activity assay; assay type: biochemical; conditions: for pIC50: 2.5 nM CaMKIα, 3 min, syntide 2, curve fit with Hill coefficient set as 1 (Fig. S5), read-out: IC50 of CaMKI inhibition; for effect on CaMKI activity at 5 µM peptide: 5 µM peptide (Figs. 5, 7B)
T2 construct: purchased SignalChem
Method: (§1) For all kinase activity assays, reactions were stopped by spotting onto P81 cation exchange chromatography paper (Whatman) squares. After extensive washes in water, phosphorylation of the substrate peptide bound to the P81 paper was measured by the Cherenkov method.
(§2) Reactions were performed essentially as described for CaMKII. However, for AMPK, 100 µM AMP was added to the reaction. For AMPK, PKC, and PKA, the reaction mix contained 1 mM EGTA instead of CaCl2 and CaM. Prior to activity assays, CaMKI (12.5 nM) and CaMKIV (80 nM) were phosphorylated by CaMKKα (1.25–4 nM) for 5 min at 30°C in Ca^2+/CaM containing buffer. Additionally, kinase amount, reaction time, and the substrate (obtained from different companies as indicated) was varied as follows: 2.5 nM CaMKIα, 3 min, syntide 2 (Genescript); 5 nM CaMKIV, 10 min, CaMK2g 345–358 peptide (Anaspec); 2.5 nM DAPK1 1–363, 3 min, MLC-derived peptide (Anaspec); 5 nM AMPK-α2β1γ1, 10 min, SAMStide (SignalChem); 5 nM PKA, 10 min, Kemptide (Genescript); 2 nM PKC, 10 min, MARCKS peptide (Anaspec). PKA and PKC were purified from bovine heart or rat brain, respectively. […] Other kinases were recombinant protein from mouse (CaMKI) or human (CaMKK, CaMKIV, DAPK1, AMPK), of the isoform and/or subunit composition indicated above.

[3] = target: T3, CaMKIV (Homo sapiens, UniProt Q16566); assay: CaMKIV activity assay; assay type: biochemical; conditions: 5 µM peptide; 5 nM CaMKIV, 10 min, CaMK2g 345–358 peptide
T3 construct: purchased SignalChem
Method: as §1, §2

[4] = target: T4, DAPK1 1–363 (Homo sapiens, UniProt P53355); assay: DAPK1 activity assay; assay type: biochemical; conditions: 5 µM peptide; 2.5 nM DAPK1 1–363, 3 min, MLC-derived peptide
T4 construct: 2.5 nM DAPK1 1–363, 3 min, MLC-derived peptide (Anaspec); purchased SignalChem
Method: as §1, §2

[5] = target: T5, AMPK-α2β1γ1 (Homo sapiens, UniProt P54619+P54646+Q9Y478); assay: AMPK activity assay; assay type: biochemical; conditions: 5 µM peptide; 5 nM AMPK, 10 min, SAMStide, 100 µM AMP
T5 construct: purchased SignalChem
Method: as §1, §2

[6] = target: T6, PKA (Bos taurus, UniProt P00517); assay: PKA activity assay; assay type: biochemical, bovine; conditions: 5 µM peptide; 5 nM PKA catalytic subunits, 10 min, Kemptide
T6 construct: PKA and PKC were purified from bovine heart or rat brain, respectively; purchased PhosphoSolutions; host or cells: bovine heart
Method: as §1, §2

[7] = test system: PKC; assay: PKC activity assay; assay type: biochemical, rat; conditions: 5 µM peptide; 2 nM PKC (PKM fragment), 10 min, MARCKS peptide
Method: as §1, §2

[8] = target: T7, CaMKII (Rattus norvegicus, UniProt P11275); assay: CaMKII activity assay, T-site binding substrate AC3; assay type: biochemical; conditions: S- and T-site binding substrate AC3, competitive inhibition (Fig. S1); read-out: IC50 for inhibition of CaMKII activity towards AC3
T7 construct: made in house; host or cells: baculovirus/Sf9 (CaMKII); bacteria (CaM)
Method: Standard reactions (1 min at 30°C) were started by adding CaMKIIα (2.5 nM subunits, unless stated otherwise) to a mix of 50 mM PIPES pH 7.2, 0.1% BSA, 1 µM CaM, 1 mM CaCl2, 10 mM MgCl2, 100 µM [γ-^32P]ATP (∼1 Ci/mmole), 75 µM substrate peptide (syntide 2, or as indicated), and inhibitor peptide as indicated. Reactions with 0.1 nM CaMKII were done for 10 min.
as §1
Systematic further truncation of CN21 defined the minimal inhibitory region, CN19 (Fig. 1B). […] Thus, the peptide C-terminally truncated by 2 amino acids (now termed CN19) contains the minimal inhibitory region with full inhibitory potency. Phosphorylation of syntide 2 by CaMKII was inhibited by CN21, CN20 and CN19 with an IC50 of ∼100 nM (Fig. 1C). Syntide 2 is a “regular” S-site binding CaMKII substrate, and CN peptides inhibit its phosphorylation in a non-competitive manner. We additionally tested AC3, an S- and T-site binding substrate, as this T-site binding results in competitive inhibition by CN peptides, which also bind to the T-site. […]

[9] = values compared from Figs. 1, 4 and 7, read-out: CaMKII IC50 (Fig. S5 table and legend)
[10] = in vitro [γ-32P]ATP assay, substrate syntide 2, 30°C, approximate values (Figs. 1C, 4B, 6), read-out: IC50 of inhibition of CaMKII phosphorylation of syntide 2

T5 sequence (P54646 whole entry): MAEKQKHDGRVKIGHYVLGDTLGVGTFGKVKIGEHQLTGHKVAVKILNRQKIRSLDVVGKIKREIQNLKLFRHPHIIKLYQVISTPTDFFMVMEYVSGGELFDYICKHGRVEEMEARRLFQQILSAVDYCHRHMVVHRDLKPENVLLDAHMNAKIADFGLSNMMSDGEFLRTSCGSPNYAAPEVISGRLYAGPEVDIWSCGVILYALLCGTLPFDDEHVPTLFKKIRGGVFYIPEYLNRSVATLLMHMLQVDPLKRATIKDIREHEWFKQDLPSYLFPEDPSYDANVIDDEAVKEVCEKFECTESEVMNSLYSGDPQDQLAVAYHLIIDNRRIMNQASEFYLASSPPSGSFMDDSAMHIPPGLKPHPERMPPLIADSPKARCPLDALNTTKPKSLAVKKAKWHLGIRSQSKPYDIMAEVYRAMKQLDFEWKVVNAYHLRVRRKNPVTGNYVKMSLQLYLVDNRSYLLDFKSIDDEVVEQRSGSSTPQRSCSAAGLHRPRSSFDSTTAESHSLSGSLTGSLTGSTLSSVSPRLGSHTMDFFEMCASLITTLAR
T5 sequence (Q9Y478 whole entry partner): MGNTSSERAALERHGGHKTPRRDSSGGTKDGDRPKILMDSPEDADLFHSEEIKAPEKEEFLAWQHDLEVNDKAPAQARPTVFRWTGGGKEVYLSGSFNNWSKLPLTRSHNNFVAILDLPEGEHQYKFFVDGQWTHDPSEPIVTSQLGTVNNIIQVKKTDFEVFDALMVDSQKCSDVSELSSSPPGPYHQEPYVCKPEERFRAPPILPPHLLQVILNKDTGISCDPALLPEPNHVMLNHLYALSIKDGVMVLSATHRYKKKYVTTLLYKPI
T5 sequence (P54619 whole entry partner): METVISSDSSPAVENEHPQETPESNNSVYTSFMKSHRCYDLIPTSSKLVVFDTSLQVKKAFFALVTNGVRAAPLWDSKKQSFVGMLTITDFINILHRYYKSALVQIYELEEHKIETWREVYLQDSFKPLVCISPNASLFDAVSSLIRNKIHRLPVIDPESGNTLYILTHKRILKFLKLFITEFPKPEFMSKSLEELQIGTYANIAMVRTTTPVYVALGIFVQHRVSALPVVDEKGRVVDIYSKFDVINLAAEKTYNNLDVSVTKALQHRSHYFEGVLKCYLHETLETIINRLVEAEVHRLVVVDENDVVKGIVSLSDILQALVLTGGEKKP

ARPPKLGQIGRSKRVVIED [K1A]
IC50 [1]: < 0.3 µM

Ac-KRAPKLGQIGRQKAVDIED-NH2 [CN19o]
CaMKII activity remaining at 5 nM peptide [1]: blocked CaMKII activity almost completely | pIC50 ([1]; CaMKII reduced to 0.1 nM, 10 min reaction, IC50 dependent on CaMKII concentration (tight binding inhibitor), read-out: IC50 for CaMKII inhibition by CN19o (Fig. 7A)): > 9.40 | effect of rational mutation in CN19a2v / CN19o on CaMKII inhibition (Fig. 6) [1]: increased potency even further | fold greater potency of CaMKII inhibition compared to CN19 [1]: > 250 fold | pIC50 [1, 9]: 9.40 | fold increase of selectivity for CaMKII vs CaMKI compared to CN19 [2]: > 250 fold | pIC50 [2]: 4.42 | effect on CaMKI activity at 5 µM peptide [2]: did not significantly affect | CaMKII selectivity (Fig. S5 table) ([2]; ratio CaMKI IC50 / CaMKII IC50): > 100,000 x | selectivity for CaMKII vs CaMKI ([2]; ratio CaMKI IC50 / CaMKII IC50): ~100,000 fold | effect on CaMKIV activity at 5 µM [3]: did not significantly affect | effect on DAPK1 activity at 5 µM [4]: did not significantly affect | effect on AMPK activity at 5 µM [5]: did not significantly affect | effect on PKA activity at 5 µM [6]: did not significantly affect | effect on PKC activity at 5 µM [7]: did not significantly affect

Ac-KRAPKLGQIGRQKAVVIED-NH2 [CN19a2v V12Q]
effect of rational mutation in CN19a2v / CN19o on CaMKII inhibition (Fig. 6) [1]: significantly increased potency | pIC50 [1, 10]: ~9.00

Ac-KRAPKLGQIGRVKAVDIED-NH2 [CN19a2v V16D]
effect of rational mutation in CN19a2v / CN19o on CaMKII inhibition (Fig. 6) [1]: significantly increased potency | pIC50 [1, 10]: ~9.00

Ac-KRAPKLGQIGRVKAVVIED-NH2 [CN19a2v]
CaMKII activity remaining at 5 nM peptide [1]: ~75% | potency of CN19 combination mutants (Fig. 4) ([1]; 20 nM peptide, syntide 2): without loss of its potency; also recorded: significantly stronger compared to CN19a3 with additional S12V mutation (CN19a3v) | effect of further mutation in CN19a2 on CaMKII inhibition (Figs. S3B, S4B) ([1]; compared with CN19a2): retained potency of CaMKII inhibition | fold greater potency of CaMKII inhibition compared to CN19 [1]: ~5 fold | pIC50 [1, 9]: 7.70 | fold greater potency of CaMKI inhibition compared to CN19 [2]: ~2 fold | fold increase of selectivity for CaMKII vs CaMKI compared to CN19 [2]: ~2.5 fold | pIC50 [2]: 4.74 | effect on CaMKI activity at 5 µM peptide [2]: did not inhibit | CaMKI activity at 20 µM peptide ([2]; 20 µM peptide, remaining activity (Fig. 5B)): ~60% | selectivity for CaMKII vs CaMKI ([2]; ratio CaMKI IC50 / CaMKII IC50): ~900 fold

Ac-KRPPKLGQIGRSKRVVIED-NH2 [CN19]
pIC50 [1, 9]: 7.00 | pIC50 [8]: ~6.00 | pIC50 [2]: 4.44 | effect on CaMKI activity at 5 µM peptide [2]: did not significantly inhibit | selectivity for CaMKII vs CaMKI ([2]; ratio CaMKI IC50 / CaMKII IC50): ~360 fold

Ac-KRPPKLGQIGRSKRVVIEDD-NH2 [CN20]
effect of CN21 truncation on CaMKII inhibition (Fig. 1B) ([1]; CaMKII 20 nM, 40 µM syntide 2): not different between each other | pIC50 [1, 10]: ~7.00

Ac-KRPPKLGQIGRSKRVVIEDDR-NH2 [CN21, reference compound]
pIC50 [1]: ~7.00 | pIC50 [8]: ~6.00 | effect on CaMKI activity at 5 µM peptide [2]: did not significantly inhibit

H-KRPPKLGAIGRSKRVVIED-OH [Q8A]
IC50 [1]: ~0.1 µM

H-KRPPKLGQIGRSKRVAIED-OH [V16A]
IC50 [1]: ~0.1 µM

KAPPKLGQIGRSKRVVIED [R2A]
IC50 [1]: < 0.3 µM

KRAPKLGQIGRSKRVVIED [P3A]
IC50 [1]: < 0.1 µM | effect of individual mutation of CN19 on potency of CaMKII inhibition ([1]; syntide 2): significantly increased potency

KRPAKLGQIGRSKRVVIED [P4A]
IC50 [1]: > 0.3 µM

KRPPALGQIGRSKRVVIED [K5A]
IC50 [1]: < 0.3 µM

KRPPKAGQIGRSKRVVIED [L6A]
IC50 [1]: > 0.3 µM

KRPPKLAQIGRSKRVVIED [G7A]
IC50 [1]: < 0.3 µM

KRPPKLGQAGRSKRVVIED [I9A]
IC50 [1]: > 0.3 µM

KRPPKLGQIARSKRVVIED [G10A]
IC50 [1]: > 0.3 µM

KRPPKLGQIGASKRVVIED [R11A]
fold reduction of potency of CaMKII inhibition compared to CN19 (Ala scan) [1]: more than 3 fold | IC50 [1]: > 0.3 µM

KRPPKLGQIGRAKRVVIED [S12A]
fold reduction of potency of CaMKII inhibition compared to CN19 (Ala scan) [1]: more than 3 fold | IC50 [1]: > 0.3 µM

KRPPKLGQIGRSARVVIED [K13A]
IC50 [1]: < 0.1 µM | effect of individual mutation of CN19 on potency of CaMKII inhibition ([1]; syntide 2): significantly increased potency

KRPPKLGQIGRSKAVVIED [R14A]
IC50 [1]: < 0.1 µM | effect of individual mutation of CN19 on potency of CaMKII inhibition ([1]; syntide 2): significantly increased potency

KRPPKLGQIGRSKRAVIED [V15A]
IC50 [1]: < 0.3 µM

KRPPKLGQIGRSKRVVAED [I17A]
IC50 [1]: < 0.3 µM

KRPPKLGQIGRSKRVVIAD [E18A]
IC50 [1]: < 0.3 µM

KRPPKLGQIGRSKRVVIEA [D19A]
IC50 [1]: < 0.3 µM
